What was measured:
[1] = target: T1, ALK5 (Homo sapiens, UniProt P36897); assay: ALK5 enzyme inhibition assay (33P-ATP filter-binding, Reaction Biology Corp); type: biochemical; conditions: casein substrate 1 mg/mL, 10 uM ATP
T1 construct: purchased Reaction Biology Corp (Malvern, PA)
T1 sequence (P36897 34-503): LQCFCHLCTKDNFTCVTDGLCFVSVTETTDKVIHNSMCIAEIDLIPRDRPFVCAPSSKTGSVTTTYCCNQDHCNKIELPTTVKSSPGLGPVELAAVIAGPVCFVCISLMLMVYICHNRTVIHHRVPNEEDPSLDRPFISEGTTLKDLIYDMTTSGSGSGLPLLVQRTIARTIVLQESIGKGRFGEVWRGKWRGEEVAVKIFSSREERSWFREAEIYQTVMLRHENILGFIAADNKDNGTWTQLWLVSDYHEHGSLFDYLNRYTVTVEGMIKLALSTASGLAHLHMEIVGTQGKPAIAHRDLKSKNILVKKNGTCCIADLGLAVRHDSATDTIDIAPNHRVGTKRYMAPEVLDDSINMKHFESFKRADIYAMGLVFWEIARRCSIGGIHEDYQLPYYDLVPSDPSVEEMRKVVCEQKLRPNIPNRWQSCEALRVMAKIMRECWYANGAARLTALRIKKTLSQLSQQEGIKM
Experimental: ALK5 enzyme inhibition assays were performed by Reaction Biology Corp (Malvern, PA). 1 mg/mL of peptide subtrate (casein) and 10 uM ATP were prepared in a mixture of fresh reaction buffer. The kinase was delivered into the substrate solution which was gently mixed. Compounds in 100% DMSO were added to the kinase reaction mixture by Acoustic technology (Echo550; nanoliter range) and the mixture was incubated for 20 min at room temperature. ^33P-ATP (Specific activity 10 uCi/uL) was added into the reaction mixture to initiate the reaction and the reaction mixture was incubated for 2 hours at room temperature. Radioactivity was detected by filter-binding method and kinase activity data were expressed as the percent remaining kinase activity in test samples compared to vehicle (dimethyl sulfoxide) reactions. IC50 values and curve fits were obtained using Prism (GraphPad Software).

[2] = test system: TGFb/SMAD Signaling Pathway SBE reporter cell line; assay: TGFb reporter assay (luciferase); type: cell-based; conditions: 5-6 h preincubation, then TGFb, 18 h, luminescence
Experimental: TGFb/SMAD Signaling Pathway SBE reporter cell line was obtained from BPS Bioscience. Cells were passed/expanded/stored in liquid nitrogen per supplier's instruction with the exception that growth media was changed to DMEM-C with Geneticin (DMEM supplemented with 10% fetal bovine serum, 1× NEAA, 1 mM Pyruvate, 2 mM glutamine, 50 μg/mL penicillin, 50 U/mL streptomycin and 400 ug/mL of Geneticin). The assay media was MEM supplemented with 0.5% fetal bovine serum, 1× NEAA, 1 mM Pyruvate, 50 μg/mL penicillin and 50 U/mL streptomycin.
Reporter cells were harvested from the tissue culture flasks by incubation in small quantity of Versene at room temperature for three to five minutes after the media in the flask was removed and cells rinsed with PBS. Cells were counted and diluted in the assay media at ˜0.8×10^6 cells/mL then 50 uL/well were added to 96-well assay plate. Test samples (at desired concentrations diluted in assay media) were added to assay plate containing the 50 uL/well of cells (or media only), 50 uL per well, and incubated for 5-6 hours at 37° C. in a 5% CO2 humidified incubator. After that time, 15 uL of TGFb diluted to 12.5 ng/mL in the assay media was added to the plate. Controls included TGFb titration (from 25 to 0 ng/mL) without inhibitors, and media only (without cells, inhibitor or TGFb). Plates were incubated at 37° C. in a 5% CO2 humidified incubator for 18 h. Luciferase substrate solution was subsequently added at 75 uL per well, incubated in dark with shaking at room temperature for 10 min, and luminescence was measured using a luminometer.

| Compound | IC50 [1] [µM] | IC50 [2] [µM] |
| --- | --- | --- |
| CC(=O)NC1Cc2ccc(NCc3nc(-c4cccc(C)n4)c(-c4ccc5ncnn5c4)[nH]3)cc2C1 (centres unmarked) [Compound 1.25, N-(5-(((5-([1,2,4]triazolo[1,5-a]pyridin-6-yl)-4-(6-methylpyridin-2-yl)-1H-imidazol-2-yl)methyl)amino)-2,3-dihydro-1H-inden-2-yl)acetamide] | 0.1 to 1 | 0.1 to 1 |
| Cc1cccc(-c2nc(CNCC3CC3)[nH]c2-c2ccc3ncnn3c2)n1 [Compound 1.8, 1-(5-([1,2,4]triazolo[1,5-a]pyridin-6-yl)-4-(6-methylpyridin-2-yl)-1H-imidazol-2-yl)-N-(cyclopropyl-methyl)methanamine] | 1 to 10 | 0.1 to 1 |
| Cc1cccc(-c2nc(CNc3cncc(CN)c3)[nH]c2-c2ccc3ncnn3c2)n1 [Compound 1.19, N-((5-([1,2,4]triazolo[1,5-a]pyridin-6-yl)-4-(6-methylpyridin-2-yl)-1H-imidazol-2-yl)methyl)-5-(aminomethyl)pyridin-3-amine] | 1 to 10 | 0.1 to 1 |
| Cc1cccc(-c2nc(CNCc3ccc4ccccc4c3)[nH]c2-c2ccc3ncnn3c2)n1 [Compound 1.58, 1-(5-([1,2,4]triazolo[1,5-a]pyridin-6-yl)-4-(6-methylpyridin-2-yl)-1H-imidazol-2-yl)-N-(naphthalen-2-ylmethyl)methanamine] | 0.1 to 1 | 0.1 to 1 |
| Cc1cccc(-c2nc(CNCCc3cccc4ccccc34)[nH]c2-c2ccc3ncnn3c2)n1 [Compound 1.59, N-((5-([1,2,4]triazolo[1,5-a]pyridin-6-yl)-4-(6-methylpyridin-2-yl)-1H-imidazol-2-yl)methyl)-2-(naphthalen-1-yl)ethan-1-amine] | 0.01 to 0.1 | 0.01 to 0.1 |
| Cc1cccc(-c2nc(CNC3Cc4ccccc4C3)[nH]c2-c2ccc3ncnn3c2)n1 [Compound 1.27, N-((5-([1,2,4]triazolo[1,5-a]pyridin-6-yl)-4-(6-methylpyridin-2-yl)-1H-imidazol-2-yl)methyl)-2,3-dihydro-1H-inden-2-amine] | 0.1 to 1 | 0.01 to 0.1 |
| Cc1cccc(-c2nc(CNc3cccc4c3CNCC4)[nH]c2-c2ccc3ncnn3c2)n1 [Compound 1.3, N-((5-([1,2,4]triazolo[1,5-a]pyridin-6-yl)-4-(6-methylpyridin-2-yl)-1H-imidazol-2-yl)methyl)-1,2,3,4-tetrahydroisoquinolin-8-amine] | 0.1 to 1 | 0.1 to 1 |
| Cc1cccc(-c2nc(CN[C@H]3CCCC[C@@H]3F)[nH]c2-c2ccc3ncnn3c2)n1 [Compound 1.32, (1S,2S)-N-((5-([1,2,4]triazolo[1,5-a]pyridin-6-yl)-4-(6-methylpyridin-2-yl)-1H-imidazol-2-yl)methyl)-2-fluorocyclohexan-1-amine] | 0.01 to 0.1 | 0.1 to 1 |
| Cc1cccc(-c2nc(CNCc3cccc4ccccc34)[nH]c2-c2ccc3ncnn3c2)n1 [Compound 1.57, 1-(5-([1,2,4]triazolo[1,5-a]pyridin-6-yl)-4-(6-methylpyridin-2-yl)-1H-imidazol-2-yl)-N-(naphthalen-1-ylmethyl)methanamine] | 0.01 to 0.1 | 0.01 to 0.1 |
| Cc1cccc(-c2nc(CNc3cccc4c3CNC4)[nH]c2-c2ccc3ncnn3c2)n1 [Compound 1.31, N-((5-([1,2,4]triazolo[1,5-a]pyridin-6-yl)-4-(6-methylpyridin-2-yl)-1H-imidazol-2-yl)methyl)isoindolin-4-amine] | 0.1 to 1 | 0.1 to 1 |
| Cc1cccc(-c2nc(CN[C@@H]3CCc4ccccc43)[nH]c2-c2ccc3ncnn3c2)n1 [Compound 1.30, (R)-N-((5-([1,2,4]triazolo[1,5-a]pyridin-6-yl)-4-(6-methylpyridin-2-yl)-1H-imidazol-2-yl)methyl)-2,3-dihydro-1H-inden-1-amine] | 0.1 to 1 | 0.01 to 0.1 |
| Cc1cccc(-c2nc(CN[C@@H]3c4ccccc4C[C@@H]3O)[nH]c2-c2ccc3ncnn3c2)n1 [Compound 1.44, (1R,2S)-1-(((5-([1,2,4]triazolo[1,5-a]pyridin-6-yl)-4-(6-methylpyridin-2-yl)-1H-imidazol-2-yl)methyl)amino)-2,3-dihydro-1H-inden-2-ol] | 0.1 to 1 | 0.01 to 0.1 |
| Cc1cccc(-c2nc(CN[C@H]3c4ccccc4C[C@@H]3O)[nH]c2-c2ccc3ncnn3c2)n1 [Compound 1.45, (1S,2S)-1-(((5-([1,2,4]triazolo[1,5-a]pyridin-6-yl)-4-(6-methylpyridin-2-yl)-1H-imidazol-2-yl)methyl)amino)-2,3-dihydro-1H-inden-2-ol] | 0.1 to 1 | 0.01 to 0.1 |
| Cc1cccc(-c2nc(CNC3CCc4ccccc43)[nH]c2-c2ccc3ncnn3c2)n1 (racemic) [Compound 1.26, rac-N-((5-([1,2,4]triazolo[1,5-a]pyridin-6-yl)-4-(6-methylpyridin-2-yl)-1H-imidazol-2-yl)methyl)-2,3-dihydro-1H-inden-1-amine] | 0.1 to 1 | 0.01 to 0.1 |
| Cc1cccc(-c2nc(CNc3cccc4c3CCNC4)[nH]c2-c2ccc3ncnn3c2)n1 [Compound 1.4, N-((5-([1,2,4]triazolo[1,5-a]pyridin-6-yl)-4-(6-methylpyridin-2-yl)-1H-imidazol-2-yl)methyl)-1,2,3,4-tetrahydroisoquinolin-5-amine] | 0.1 to 1 | 0.1 to 1 |
| Cc1cccc(-c2nc(CNCc3ccc4c(c3)OCO4)[nH]c2-c2ccc3ncnn3c2)n1 [Compound 1.41, 1-(5-([1,2,4]triazolo[1,5-a]pyridin-6-yl)-4-(6-methylpyridin-2-yl)-1H-imidazol-2-yl)-N-(benzo[d][1,3]dioxol-5-ylmethyl)methanamine] | 0.1 to 1 | 0.1 to 1 |
| Cc1cccc(-c2nc(CNCCc3ccnc4ccccc34)[nH]c2-c2ccc3ncnn3c2)n1 [Compound 1.60, N-((5-([1,2,4]triazolo[1,5-a]pyridin-6-yl)-4-(6-methylpyridin-2-yl)-1H-imidazol-2-yl)methyl)-2-(quinolin-4-yl)ethan-1-amine] | 0.1 to 1 | 0.01 to 0.1 |
| Cc1cccc(-c2nc(CNc3ccc4c(c3)CNCC4)[nH]c2-c2ccc3ncnn3c2)n1 [Compound 1.1, N-((5-([1,2,4]triazolo[1,5-a]pyridin-6-yl)-4-(6-methylpyridin-2-yl)-1H-imidazol-2-yl)methyl)-1,2,3,4-tetrahydroisoquinolin-7-amine] | 0.1 to 1 | 0.1 to 1 |
| Cc1cccc(-c2nc(CNc3ccc4c(c3)CCNC4)[nH]c2-c2ccc3ncnn3c2)n1 [Compound 1.2, N-((5-([1,2,4]triazolo[1,5-a]pyridin-6-yl)-4-(6-methylpyridin-2-yl)-1H-imidazol-2-yl)methyl)-1,2,3,4-tetrahydroisoquinolin-6-amine] | 0.1 to 1 | 0.1 to 1 |
| Cc1cccc(-c2nc(CNCC3CCCCC3)[nH]c2-c2ccc3ncnn3c2)n1 [Compound 1.42, 1-(5-([1,2,4]triazolo[1,5-a]pyridin-6-yl)-4-(6-methylpyridin-2-yl)-1H-imidazol-2-yl)-N-(cyclohexylmethyl)methanamine] | 0.1 to 1 | 0.01 to 0.1 |
| Cc1cccc(-c2nc(CN[C@@H]3c4ccccc4C[C@H]3O)[nH]c2-c2ccc3ncnn3c2)n1 [Compound 1.46, (1R,2R)-1-(((5-([1,2,4]triazolo[1,5-a]pyridin-6-yl)-4-(6-methylpyridin-2-yl)-1H-imidazol-2-yl)methyl)amino)-2,3-dihydro-1H-inden-2-ol] | 0.1 to 1 | 0.01 to 0.1 |
| Cc1cccc(-c2nc(CNCCc3cccc4ncccc34)[nH]c2-c2ccc3ncnn3c2)n1 [Compound 1.61, N-((5-([1,2,4]triazolo[1,5-a]pyridin-6-yl)-4-(6-methylpyridin-2-yl)-1H-imidazol-2-yl)methyl)-2-(quinolin-5-yl)ethan-1-amine] | 0.1 to 1 | 0.01 to 0.1 |
